One experiment concerns E. Coli. Kind of experiment: MIC, E. Coli. As to conditions: for MIC: Escherichia coli. Format: cell-based. On the procedure:
(§1) The MIC assays are carried out in 150 μL volume in duplicate in 96-well clear flat-bottom plates. The bacterial suspension from an overnight culture growth in appropriate medium is added to a solution of test compound in 4% DMSO in water. Final bacterial inoculum is approximately 10^5-10^6 CFU/well. […] Both ampicillin and tetracycline are used as antibiotic-positive controls in each screening assay for S. pyogenes, E. coli imp-, E. coli, S. aureus, E. faecalis, K. pneumoniae and P. vulgaris. Ciprofloxacin is used as an antibiotic positive control in each screening assay for P. aeruginosa.

The next experiment has as its system S. Aureus. Kind of experiment: MIC, S. Aureus. The format is cell-based. The note with it: for MIC: Staphylococcus aureus. On the procedure: as §1

Converted amounts (≈) assume the structure as drawn. “And” between values parts separate entries of the source, which are not always exact repeats. Equal entries are not always repeated.

As usually defined, the MIC is the lowest concentration found to suppress growth.

Turning to `NCC1OC(OC2C(CO)OC(OC3C(O)C(N)CC(N)C3OC3OC(CO)C(O)C(O)C3N)C2OCCNCCC2CC3CCC2C3)C(N)C(O)C1O` (stereo not drawn) [Compound 9ab], the “MIC E. Coli.” value against E. Coli (Example 107) is over 10 µM. Further, in the experiment with S. Aureus (Example 107), the “MIC S. Aureus” value fell in the range of 5 to 10 µM.
On the same counts, the results for `NCC1OC(OC2C(CO)OC(OC3C(O)C(N)CC(N)C3OC3OC(CO)C(O)C(O)C3N)C2OCCNC2CCCc3ccccc32)C(N)C(O)C1O` (stereo not drawn) [Compound 9ac] are over 10 µM and 1.3 to 2.5 µM.
For `NCC1OC(OC2C(CO)OC(OC3C(O)C(N)CC(N)C3OC3OC(CO)C(O)C(O)C3N)C2OCCNCCc2cc(C(F)(F)F)cc(C(F)(F)F)c2)C(N)C(O)C1O` (stereo not drawn) [Compound 9af] the same measures were over 10 µM and 2.5-5^ uM.
As to `NCC1OC(OC2C(CO)OC(OC3C(O)C(N)CC(N)C3OC3OC(CO)C(O)C(O)C3N)C2OCCNCCc2ccc(C(F)(F)F)cc2)C(N)C(O)C1O` (stereo not drawn) [Compound 9ah], the “MIC E. Coli.” value in the experiment on E. Coli (Example 107) was 5 to 10 µM. In addition, the “MIC S. Aureus” value in the experiment on S. Aureus (Example 107) lay in the range of 0.6 to 1.2 µM.
`NC[C@@H]1O[C@H](O[C@H]2[C@@H](OCCOCCCC3CCCCC3)[C@H](O[C@@H]3[C@@H](O)[C@H](N)C[C@H](N)[C@H]3O[C@H]3O[C@H](CO)[C@@H](O)[C@H](O)[C@H]3N)O[C@@H]2CO)[C@H](N)[C@@H](O)[C@@H]1O` [Compound 12b]: the minimum inhibitory concentration (MIC) in the experiment on E. Coli (Example 107) is 20 to 40 µM (≈ 15.7 to 31.4 µg/mL); in the experiment with S. Aureus (Example 107), 5 to 10 µM (≈ 3.92 to 7.84 µg/mL).
Regarding `NC[C@@H]1O[C@H](O[C@H]2[C@@H](OCCCc3ccccc3)[C@H](O[C@@H]3[C@@H](O)[C@H](N)C[C@H](N)[C@H]3O[C@H]3O[C@H](CO)[C@@H](O)[C@H](O)[C@H]3N)O[C@@H]2CO)[C@H](N)[C@@H](O)[C@@H]1O` [Compound 14b], the MIC is 20 to 40 µM (≈ 14.7 to 29.4 µg/mL) with E. Coli (Example 107) and 3 to 5 µM (≈ 2.2 to 3.67 µg/mL) against S. Aureus (Example 107).
Regarding `Cc1ccc(CCNCC2OC(OC3C(N)CC(N)C(O)C3OC3OC(CO)C(OC4OC(CN)C(O)C(O)C4N)C3O)C(N)C(O)C2O)cc1` (stereo not drawn) [Compound 15g], the “MIC E. Coli.” value against E. Coli (Example 109) is 2.5-5^ uM. The “MIC S. Aureus” value in the experiment on S. Aureus (Example 109) fell in the range of 0.6 to 1.2 µM.
As for `CN(CCc1ccccc1)CC1OC(OC2C(N)CC(N)C(O)C2OC2OC(CO)C(OC3OC(CN)C(O)C(O)C3N)C2O)C(N)C(O)C1O` (stereo not drawn) [Compound 15k], the “MIC E. Coli.” value with E. Coli (Example 109) is listed as 2.5-5^ uM. Moreover, the “MIC S. Aureus” value with S. Aureus (Example 109) fell in the range of 0.3 to 0.6 µM.
As for `NCC1OC(OC2C(CO)OC(OC3C(O)C(N)CC(N)C3OC3OC(CNCCc4ccc(C5CCCCC5)cc4)C(O)C(O)C3N)C2O)C(N)C(O)C1O` (stereo not drawn) [Compound 15m], the “MIC E. Coli.” value in the experiment on E. Coli (Example 109) lay in the range of 1.3 to 2.5 µM. Moreover, the “MIC S. Aureus” value in the experiment with S. Aureus (Example 109) lay within 0.3 to 0.6 µM.
With `COc1ccccc1CCNCC1OC(OC2C(N)CC(N)C(O)C2OC2OC(CO)C(OC3OC(CN)C(O)C(O)C3N)C2O)C(N)C(O)C1O` (stereo not drawn) [Compound 15n], the “MIC S. Aureus” value against S. Aureus (Example 109) was 0.2 to 0.3 µM and 0.3 to 0.6 µM.
For the compound `NCC1OC(OC2C(CO)OC(OC3C(O)C(N)CC(N)C3OC3OC(CNCCc4ccc(C(F)(F)F)cc4)C(O)C(O)C3N)C2O)C(N)C(O)C1O` (stereo not drawn) [Compound 15q], the “MIC E. Coli.” value in the experiment with E. Coli (Example 109) was 1.3 to 2.5 µM. In addition, in the experiment on S. Aureus (Example 109), the “MIC S. Aureus” value was 0.3 to 0.6 µM.
For `COc1ccc(CCNCC2OC(OC3C(N)CC(N)C(O)C3OC3OC(CO)C(OC4OC(CN)C(O)C(O)C4N)C3O)C(N)C(O)C2O)cc1` (stereo not drawn) [Compound 15r] the same measures were 1.3 to 2.5 µM and 0.3 to 0.6 µM.
Take `NCC1OC(OC2C(CO)OC(OC3C(O)C(N)CC(N)C3OC3OC(CN4CCC5CCCCC54)C(O)C(O)C3N)C2O)C(N)C(O)C1O` (stereo not drawn) [Compound 15s]: the “MIC E. Coli.” value in the experiment on E. Coli (Example 109) lay in the range of 1.3 to 2.5 µM. In addition, in the experiment with S. Aureus (Example 109), the “MIC S. Aureus” value lay within 0.3 to 0.6 µM.
As for `NC1CC(N)C(OC2OC(CO)C(O)C(O)C2N)C(OC2OC(CO)C(O)C2OCCNCCc2ccccc2)C1O` (stereo not drawn) [Compound 30c], the “MIC E. Coli.” value against E. Coli (Example 107) was over 100 µM. In the experiment with S. Aureus (Example 107), the “MIC S. Aureus” value was 12 to 25 µM.
